The source of these data is ChEMBL document CHEMBL1154111, “Potent, orally bioavailable, liver-selective stearoyl-CoA desaturase (SCD) inhibitors” (Bioorg Med Chem Lett, 2009).

A short description of data set [1]: Elimination half life in Sprague-Dawley rat at 1 mg/kg, iv. The class given is ADME, organism-based. Also noted: dose 1 mg/kg, route intravenous. The following applies: in vivo, read-out: beta t1/2 (converted).
The test system of data set [2] is Rattus norvegicus. The experiment in a line: Inhibition of stearoyl-CoA delta9 desaturase in high-carbohydrate diet-fed Sprague-Dawley rat dosed orally BID for 5 days assessed as reduction in liver palmitoleic and vaccenic acid level. The class given is functional, organism-based.
Data set [3] in a line: Oral bioavailability in Sprague-Dawley rat at 1.5 mg/kg. The class given is ADME, organism-based. The note with it: in vivo.
Data set [4] is described as follows: Apparent permeability from apical to basolateral side of human Caco-2 cells. The class given is ADME, cell-based. For orientation: Caco-2 monolayers are a common model of the intestinal barrier.
Data set [5] concerns the target Acyl-CoA (8-3)-desaturase (Rattus norvegicus, UniProt Q920R3). The experiment in a line: Inhibition of stearoyl-CoA delta5 desaturase in rat microsome.
The test system of data set [6] is Rattus norvegicus. The experiment in a line: Inhibition of stearoyl-CoA delta9 desaturase in high-carbohydrate diet-fed Sprague-Dawley rat dosed orally BID for 5 days assessed as reduction in plasma palmitoleic and vaccenic acid level. The format is functional, organism-based.
Data set [7] has as its system Rattus norvegicus. The experiment in a line: Reduction in liver triglyceride level in high-carbohydrate diet-fed Sprague-Dawley rat at 20 mg/kg, po, BID after 5 days measured after 4 hrs of last dose relative to control. The class given is functional. Further details: scale not given: the % may be the effect or the level left.
In data set [8] the target is Acyl-CoA 6-desaturase (Rattus norvegicus, UniProt Q9Z122). The experiment in a line: Inhibition of stearoyl-CoA delta6 desaturase in rat microsome.
Sequence of Acyl-CoA 6-desaturase (Q9Z122 whole entry): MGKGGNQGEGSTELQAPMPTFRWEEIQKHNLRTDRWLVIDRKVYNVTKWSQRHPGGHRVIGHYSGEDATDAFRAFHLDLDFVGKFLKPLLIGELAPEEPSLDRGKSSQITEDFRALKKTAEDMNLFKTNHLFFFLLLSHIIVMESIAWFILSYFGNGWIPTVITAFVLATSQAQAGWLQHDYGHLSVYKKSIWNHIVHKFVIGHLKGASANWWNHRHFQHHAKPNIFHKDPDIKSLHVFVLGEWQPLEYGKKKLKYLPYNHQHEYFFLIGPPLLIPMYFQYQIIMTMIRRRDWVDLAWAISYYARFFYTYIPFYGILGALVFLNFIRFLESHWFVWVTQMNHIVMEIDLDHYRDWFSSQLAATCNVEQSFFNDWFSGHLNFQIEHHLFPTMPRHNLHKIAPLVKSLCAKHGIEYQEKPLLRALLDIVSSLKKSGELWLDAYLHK
Data set [9] is described as follows: Terminal volume of distribution in Sprague-Dawley rat at 1.5 mg/kg, po and 1 mg/kg, iv. The class given is ADME, organism-based. The note with it: in vivo, read-out: Vbeta.
Data set [10] can be described thus: Apparent permeability from basolateral to apical side of human Caco-2 cells. The format is ADME, cell-based.
For data set [11], the target named is T1, Acyl-CoA desaturase 1 (Rattus norvegicus, UniProt P07308).
T1 sequence (P07308 whole entry): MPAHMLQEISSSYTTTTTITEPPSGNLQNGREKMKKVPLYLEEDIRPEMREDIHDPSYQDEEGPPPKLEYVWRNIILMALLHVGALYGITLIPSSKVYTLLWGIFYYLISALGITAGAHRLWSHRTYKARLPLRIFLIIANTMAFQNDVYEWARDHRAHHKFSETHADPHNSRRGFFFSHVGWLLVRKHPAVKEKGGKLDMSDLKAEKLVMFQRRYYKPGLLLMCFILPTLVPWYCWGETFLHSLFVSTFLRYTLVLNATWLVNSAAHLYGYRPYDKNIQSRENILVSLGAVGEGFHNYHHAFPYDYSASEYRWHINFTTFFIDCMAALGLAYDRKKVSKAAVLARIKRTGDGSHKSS
The experiment in a line: Inhibition of stearoyl-CoA delta9 desaturase in rat microsome.

A short description of data set [12]: Cmax in Sprague-Dawley rat at 1.5 mg/kg, po. The format is ADME, organism-based. Also noted: dose 1.5 mg/kg, route oral. The note with it: in vivo.
Data set [13] has as its system Rattus norvegicus. In words: Dose normalized AUC in Sprague-Dawley rat at 1 mg/kg, po. The note with it: in vivo. The class given is ADME, organism-based. Also noted: dose 1 mg/kg, route oral.
Data set [14] in a line: Plasma clearance in Sprague-Dawley rat plasma at 1 mg/kg, iv. The class given is ADME, organism-based. Further details: dose 1 mg/kg, route intravenous.
The nature of data set [15]: Metabolic stability in human liver microsome after 30 mins. The class given is ADME. The note with it: liver microsomes, read-out: Stability. Background: Liver microsomes are a subcellular fraction often used to study metabolism.
Data set [16] can be described thus: Metabolic stability in Sprague-Dawley rat liver microsome after 30 mins. The format is ADME. The following applies: liver microsomes, read-out: Stability.
Data set [17] has as its target T2, Stearoyl-CoA desaturase (Homo sapiens, UniProt O00767).
T2 sequence (O00767 whole entry): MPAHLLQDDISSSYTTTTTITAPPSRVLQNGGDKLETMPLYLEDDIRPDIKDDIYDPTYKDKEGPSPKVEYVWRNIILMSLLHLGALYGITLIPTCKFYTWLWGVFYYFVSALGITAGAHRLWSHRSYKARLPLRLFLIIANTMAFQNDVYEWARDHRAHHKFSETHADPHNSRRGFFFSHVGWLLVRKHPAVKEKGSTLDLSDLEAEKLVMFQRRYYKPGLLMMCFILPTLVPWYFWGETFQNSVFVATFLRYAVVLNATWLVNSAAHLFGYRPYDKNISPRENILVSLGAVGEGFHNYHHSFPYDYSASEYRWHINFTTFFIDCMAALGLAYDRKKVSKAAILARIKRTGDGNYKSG
The experiment in a line: Inhibition of stearoyl-CoA delta9 desaturase in human HepG2 cells. The class given is cell-based.

Structures are written as SMILES. Some results are limits rather than exact numbers.

Sequence of Acyl-CoA (8-3)-desaturase (Q920R3 whole entry): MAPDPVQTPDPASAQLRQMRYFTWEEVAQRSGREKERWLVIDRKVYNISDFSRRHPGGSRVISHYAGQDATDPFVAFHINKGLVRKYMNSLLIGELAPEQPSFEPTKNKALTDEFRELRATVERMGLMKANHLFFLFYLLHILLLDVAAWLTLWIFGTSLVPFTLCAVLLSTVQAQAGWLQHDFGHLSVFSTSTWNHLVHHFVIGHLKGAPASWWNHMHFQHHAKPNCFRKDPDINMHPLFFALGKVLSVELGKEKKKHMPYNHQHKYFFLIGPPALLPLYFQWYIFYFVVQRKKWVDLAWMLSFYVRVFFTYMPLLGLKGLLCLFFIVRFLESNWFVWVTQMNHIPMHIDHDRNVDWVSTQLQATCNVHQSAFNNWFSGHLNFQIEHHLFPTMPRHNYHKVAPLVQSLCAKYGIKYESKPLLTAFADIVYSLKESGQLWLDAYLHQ

Take `Cc1nc2ccc(NCc3cccc(C(F)(F)F)c3)cc2n(CCNC(=O)CO)c1=O`: the half-life in data set [1] is 0.95 h. Moreover, the Activity result in [2] is “Dose-dependent effect”; in data set [6], “Dose-dependent effect”; in data set [7], 50%. The bioavailability (in general, dose-corrected exposure relative to a reference, in per cent) in data set [3] amounted to 78%. Moreover, the apical-to-basolateral permeability (Papp A→B) (as a rule, the apparent permeability from the apical to the basolateral side of a cell layer) in data set [4] was 6.8 ×10⁻⁶ cm/s. In addition, the IC50 (commonly the midpoint of a concentration-inhibition curve) was greater than 30 µM in data set [5], greater than 30 µM in data set [8] and 0.038 µM in [11]. For the same compound, the Vd in data set [9] came to 7.22 L/kg. Further, the Papp B→A – broadly, how fast a substance crosses the layer from the basolateral side – in [10] worked out at 48.2 ×10⁻⁶ cm/s. The highest concentration (Cmax) (in general, the highest concentration seen after dosing) in [12] came out at 374 ng/mL. For the same compound, the AUC – broadly, concentration integrated over time – in data set [13] came to 148 ng·h/mL. Also, in data set [14], the clearance (usually the volume of plasma or blood freed of the substance per unit of time) was 88.1 mL/min/kg. Further, the remaining at 0.5 h is 56% in data set [15] and 54% in [16].

As for `O=C(CO)NCCn1c(=O)c(C(F)(F)F)nc2ccc(NCc3cccc(C(F)(F)F)c3)cc21`, the 50% inhibitory concentration (IC50) turned out to be 0.0027 µM in [17] and 0.0019 µM in data set [11]. Further, the remaining at 0.5 h in data set [15] turned out to be 19%; in [16], 77%.

On to `COc1ccc(-c2nc3ccc(NCc4ccc(Cl)c(C(F)(F)F)c4)cc3n(CCNC(C)=O)c2=O)cc1`, for which the concentration for half-maximal inhibition (IC50) in data set [11] was 0.0006 µM.

Regarding `CC(C)(C)c1nc2ccc(NCc3cccc(C(F)(F)F)c3)cc2n(CCNC(=O)CO)c1=O`, the IC50 in data set [11] was greater than 3 µM.

In data set [11], `Cc1nc2ccc(NCc3cccc(C(F)(F)F)c3)cc2n(CCNC(=O)[C@H](C)O)c1=O` showed an IC50 of 8 µM.

Compound `CC1(C)Oc2ccc(NCc3ccc(Cl)c(Cl)c3)cc2N(CCNC(=O)CO)C1=O` showed an IC50 in data set [11] of 0.012 µM. The remaining at 0.5 h was 3.1% in data set [15] and 9.6% in data set [16].

Consider `Cc1nc2ccc(NCc3cccc(C(F)(F)F)c3)cc2n(CCNC(=O)C(O)CO)c1=O` (racemic), for which the half-inhibitory concentration (IC50) in data set [17] turned out to be 0.068 µM; in [11], 0.268 µM.

`Cc1nc2ccc(NCc3cccc(C(F)(F)F)c3)cc2n(CCNC(=O)[C@@H](C)O)c1=O` gave a concentration for half-maximal inhibition (IC50) in data set [11] of 3.9 µM.

For the compound `CC(=O)NCCn1c(=O)c(C)nc2ccc(NCc3cccc(C(F)(F)F)c3)cc21`, the IC50 in data set [11] was found to be 0.162 µM.

For the compound `O=C(CO)Nc1ccc2ncn(Cc3ccc(Cl)c(Cl)c3)c(=O)c2c1`, the Vd in data set [9] is 2.06 L/kg. This compound showed an IC50 in data set [17] of 0.119 µM. The same compound had a Cmax in [12] of 360 ng/mL. Further, the AUC in [13] was found to be 935 ng·h/mL.

As for `O=C(CO)NCCN1C(=O)COc2ccc(NCc3ccc(Cl)c(Cl)c3)cc21`, the half-life in [1] was 1.07 h. This compound displayed a bioavailability in data set [3] of 39%. In addition, the Vd in data set [9] worked out at 4.89 L/kg. In [17], half-maximal inhibition (IC50) required 0.0005 µM. The same compound had a Cmax in data set [12] of 427 ng/mL. Further, the AUC in data set [13] worked out at 122 ng·h/mL. Moreover, in data set [14], the clearance amounted to 53 mL/min/kg. Besides, the remaining at 0.5 h in [15] came out at 32%; in data set [16], 14%.

With `CC(C)c1nc2ccc(NCc3cccc(C(F)(F)F)c3)cc2n(CCNC(=O)CO)c1=O`, half-maximal inhibition in [11] (IC50) was put at 2.8 µM.

Take `Cc1nc2ccc(NCc3cccc(C(F)(F)F)c3)cc2n(CCNC(=O)CCO)c1=O`: in [11], the midpoint of inhibition, the IC50, lay at 1.1 µM.

Take `O=C(CO)Nc1ccc2ncn(Cc3ccc(Cl)c(C(F)(F)F)c3)c(=O)c2c1`: the Vd in data set [9] turned out to be 1.46 L/kg. This compound also gave a Cmax in [12] of 439 ng/mL. The same compound returned an AUC in data set [13] of 451 ng·h/mL.

On to `CC1Oc2ccc(NCc3ccc(Cl)c(Cl)c3)cc2N(CCNC(=O)CO)C1=O` (racemic), for which, in [11], the half-inhibitory concentration (IC50) was 0.08 µM. The results for the remaining at 0.5 h in [15] and in data set [16] were 2.3% and 1.5%, respectively.

For the compound `Cc1nc2ccc(NCc3cccc(C(F)(F)F)c3)cc2n(CCNC(N)=O)c1=O`, the half-inhibitory concentration (IC50) in data set [17] was greater than 1 µM; in data set [11] it was 0.015 µM.

`COc1ccc(-c2nc3ccc(NCc4cccc(C(F)(F)F)c4)cc3n(CCNC(C)=O)c2=O)cc1`: the half-inhibitory concentration (IC50) turned out to be 0.033 µM in [17] and 0.093 µM in data set [11].

In [11], `COc1ccc(-c2nc3ccc(NCc4ccc(Cl)c(Cl)c4)cc3n(CCNC(C)=O)c2=O)cc1` showed an IC50 of 0.11 µM. This compound also showed an AUC in data set [13] of 0 ng·h/mL. Moreover, the remaining at 0.5 h in [15] amounted to 83%; in data set [16] it was 54%.
